Results reported in patent US20220002279A1, “NOVEL IMIDAZOLE DERIVATIVE” (priority 2018, published 2022).
Converted amounts (≈) assume the structure as drawn. Like-named read-outs stand apart in the source and are kept apart here.

Legend:
[1] = test system: Klebsiella pneumoniae strain ATCC13883; test: Antimicrobial activity, MIC by broth microdilution; assay type: cell-based; conditions: ATCC13883, cation-adjusted Mueller-Hinton broth, about 5×10^5 CFU/mL, 35° C., about 18 hours, read-out: MIC Klebsiella pneumoniae ATCC13883
Text: (§1) Test Example 4 Evaluation of the Antimicrobial Activity
(§2) For minimum inhibitory concentration (MIC) measurement, the following broth microdilution method was applied as adapted from the standard procedure recommended by the CLSI (Clinical and Laboratory Standards Institute).
(§3) The bacteria used were Pseudomonas aeruginosa strain ATCC27853, Escherichia coli strain ATCC25922, and Klebsiella pneumoniae strain ATCC13883. After culture overnight on a heart infusion agar medium, the cells of a test bacterium were scraped off, and a bacterial solution suspended to have a turbidity of level 0.5 on the McFarland scale was diluted and used as an inoculum solution. The inoculum solution was inoculated in a cation-adjusted Mueller-Hinton broth medium containing a test compound so that the final inoculation concentration was about 5×10^5 CFU/mL, and cultured at 35° C. for about 18 hours. A minimum drug concentration at which no cell growth was visible to the naked eye was designated as MIC. […] In the table, ND represents the case where suppression of the cell growth in a drug concentration-dependent manner was not observed (Not Determined), and NT represents that no test was conducted (Not Tested).

[2] = test system: Escherichia coli strain ATCC25922; test: Antimicrobial activity, MIC by broth microdilution; assay type: cell-based; conditions: ATCC25922, 18 h, cation-adjusted Mueller-Hinton broth, about 5×10^5 CFU/mL, 35° C., about 18 hours, read-out: MIC Escherichia coli ATCC25922
Text: as §1, §2, §3

[3] = test system: Pseudomonas aeruginosa strain ATCC27853; test: Antimicrobial activity, MIC by broth microdilution; assay type: cell-based; conditions: ATCC27853, 18 h, cation-adjusted Mueller-Hinton broth, about 5×10^5 CFU/mL, 35° C., about 18 hours, read-out: MIC Pseudomonas aeruginosa ATCC27853
Text: as §1, §2, §3

[4] = target: T1, Escherichia coli LpxC enzyme (Escherichia coli, UniProt P0A725); test: Inhibitory activity on Escherichia coli LpxC enzyme (fluorescamine method); assay type: biochemical
T1 construct: made in house; host or cells: Escherichia coli
T1 sequence (P0A725 1-305): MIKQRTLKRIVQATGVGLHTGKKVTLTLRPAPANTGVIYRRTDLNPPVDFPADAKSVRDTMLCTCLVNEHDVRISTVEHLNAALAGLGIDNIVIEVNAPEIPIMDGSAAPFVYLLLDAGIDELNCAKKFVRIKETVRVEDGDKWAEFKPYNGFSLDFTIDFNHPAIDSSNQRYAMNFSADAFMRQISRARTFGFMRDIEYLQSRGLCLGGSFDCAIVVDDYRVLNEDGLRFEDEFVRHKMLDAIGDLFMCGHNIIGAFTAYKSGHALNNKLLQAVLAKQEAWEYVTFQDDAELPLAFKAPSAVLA
Method: To assay the activity of Escherichia coli LpxC enzyme, LpxC was reacted with its substrate, UDP-3-O-(R-3-hydroxymyristoyl)-N-acetylglucosamine, and the amount of the reaction product was quantified by the amino groups present in the product
The reaction was terminated by the addition of 1.0 mg/mL-fluorescamine dissolved in a solvent obtained by mixing an equal amount of acetonitrile and dimethylformamide with the reaction mixture, and then, a 0.2 mol/L-sodium phosphate buffer solution (pH 8.0) was added thereto, and the amount of the reaction product was detected at an excitation wavelength/fluorescence wavelength=390 nm/495 nm. An inhibition curve was obtained by performing the aforementioned reaction in the presence of various concentrations of test compounds.

[5] = fluorescamine detection, 3.1 nmol/L enzyme, 20 μmol/L substrate, pH 6.5, 120 min, read-out: IC50 (inhibitory activity on Escherichia coli LpxC enzyme, Fluoresamine method)

Row | Structure (SMILES) | MIC [1] | MIC [2] | MIC [3] | IC50 [4, 5] | IC50 [4]
1 | COCC1CC1C#Cc1ccc(-c2cc([C@@H](CN)n3ccnc3[C@H](C)O)no2)cc1 (relative stereo) [Compound 74, (1S)-1-(1-{(1R)-2-amino-1-[5-(4-{[trans-2-(methoxymethyl)cyclopropyl]ethynyl}phenyl)-1,2-oxazol-3-yl]ethyl}-1H-imidazol-2-yl)ethan-1-ol] | 0.25 µg/mL (≈ 0.615 µM) | 0.12 µg/mL (≈ 0.295 µM) | 16 µg/mL (≈ 39.4 µM) | 39.6 nM | 
2 | C[C@H](O)c1nccn1[C@H](CN)c1cc(-c2ccc(C#CC3CC3CO)cc2)on1 (relative stereo) [Compound 80, (1S)-1-(1-((1R)-2-amino-1-[5-(4-{[trans-2-(hydroxymethyl)cyclopropyl]ethynyl}phenyl)-1,2-oxazol-3-yl]ethyl}-1H-imidazol-2-yl)ethan-1-ol] | 1 µg/mL (≈ 2.55 µM) | 0.25 µg/mL (≈ 0.637 µM) | 4 µg/mL (≈ 10.2 µM) | 80.7 nM | 
3 | COCC1CC1C#Cc1ccc(-c2cc(Cn3ccnc3[C@H](C)O)no2)cc1 (stereo in doubt) [Compound 66, (1S)-1-(1-{[5-(4-{[trans-2-(Methoxymethyl)cyclopropyl]ethynyl}phenyl)-1,2-oxazol-3-yl]methyl}-1H-imidazol-2-yl)ethan-1-ol] | 0.12 µg/mL (≈ 0.318 µM) | 0.12 µg/mL (≈ 0.318 µM) | 32 µg/mL (≈ 84.8 µM) |  | < 10 nM
4 | C[C@H](O)c1nccn1Cc1cc(-c2ccc(C#CC3CC3)cc2)on1 [Compound 26, (1S)-1-[1-({5-[4-(Cyclopropylethynyl)phenyl]-1,2-oxazol-3-yl}methyl)-1H-imidazol-2-yl]ethan-1-ol] | 0.25 µg/mL (≈ 0.75 µM) | 0.25 µg/mL (≈ 0.75 µM) | > 8 µg/mL |  | < 10 nM
5 | C[C@H](O)c1nccn1Cc1cc(-c2ccc(C#CC3CCOCC3)cc2)on1 [Compound 31, (1S)-1-{1-[(5-{4-[(oxan-4-yl)ethynyl]phenyl}-1,2-oxazol-3-yl)methyl]-1H-imidazol-2-yl) ethan-1-ol] | 2 µg/mL (≈ 5.3 µM) | 1 µg/mL (≈ 2.65 µM) | > 128 µg/mL | 32.8 nM | 
6 | C[C@H](O)c1nccn1Cc1cc(-c2ccc(C#CC(C)(C)O)cc2)on1 [Compound 32, 4-(4-[3-({2-[(1S)-1-hydroxyethyl]-1H-imidazol-1-yl}methyl)-1,2-oxazol-5-yl]phenyl}-2-methylbut-3-yn-2-ol] | 16 µg/mL (≈ 45.5 µM) | 8 µg/mL (≈ 22.8 µM) | > 128 µg/mL | 335 nM | 
7 | COCCN1C[C@@H]2[C@@H](C#Cc3ccc(-c4cc(Cn5ccnc5[C@H](C)O)no4)cc3)[C@@H]2C1 [Compound 34, (1S)-1-(1-{[5-(4-{[(1R,5S,6s)-3-(2-methoxyethyl)-3-azabicyclo[3.1.0]hexan-6-yl]ethynyl}phenyl)-1,2-oxazol-3-yl]methyl}-1H-imidazol-2-yl)ethan-1-ol] | 0.5 µg/mL (≈ 1.16 µM) | 0.25 µg/mL (≈ 0.578 µM) | 8 µg/mL (≈ 18.5 µM) | 108 nM | 
8 | C[C@H](O)c1nccn1Cc1cc(-c2ccc(C#CC3(C)CN(C)C3)cc2)on1 [Compound 35, (1S)-1-{1-[(5-{4-[(1,3-dimethylazetidin-3-yl)ethynyl]phenyl}-1,2-oxazol-3-yl)methyl]-1H-imidazol-2-yl}ethan-1-ol] | 16 µg/mL (≈ 42.5 µM) | 4 µg/mL (≈ 10.6 µM) | > 128 µg/mL | 815 nM | 
9 | C[C@H](O)c1nccn1Cc1cc(-c2ccc(C#C[C@@H]3[C@H]4CN(C)C[C@@H]34)cc2)on1 [Compound 36, (1S)-1-(1-{[5-(4-{[(1R,5S,6s)-3-methyl-3-azabicyclo[3.1.0]hexan-6-yl]ethynyl}phenyl)-1,2-oxazol-3-yl]methyl}-1H-imidazol-2-yl)ethan-1-ol] | 1 µg/mL (≈ 2.57 µM) | 0.5 µg/mL (≈ 1.29 µM) | 16 µg/mL (≈ 41.2 µM) | 98.7 nM | 
10 | CC(=O)N1C[C@@H]2[C@@H](C#Cc3ccc(-c4cc(Cn5ccnc5[C@H](C)O)no4)cc3)[C@@H]2C1 [Compound 37, 1-[(1R,5S,6s)-6-({4-[3-({2-[(1S)-1-Hydroxyethyl]-1H-imidazol-1-yl}methyl)-1,2-oxazol-5-yl]phenyl}ethynyl)-3-azabicyclo[3.1.0]hexan-3-yl]ethan-1-one] | 2 µg/mL (≈ 4.8 µM) | 1 µg/mL (≈ 2.4 µM) | 32 µg/mL (≈ 76.8 µM) | 58.2 nM | 
11 | C[C@H](O)c1nccn1[C@H](CN(C)C)c1cc(-c2ccc(C#C[C@@H]3[C@H]4CN(CCO)C[C@@H]34)cc2)on1 [Compound 39, (1S)-1-(1-{(1R)-2-(Dimethylamino)-1-[5-(4-{[(1R,5S,6s)-3-(2-hydroxyethyl)-3-azabicyclo[3.1.0]hexan-6-yl]ethynyl}phenyl)-1,2-oxazol-3-yl]ethyl}-1H-imidazol-2-yl)ethan-1-ol] | 4 µg/mL (≈ 8.41 µM) | 2 µg/mL (≈ 4.21 µM) | 8 µg/mL (≈ 16.8 µM) | 1820 nM | 
12 | COCCN1CC(C)(C#Cc2ccc(-c3cc(Cn4ccnc4[C@H](C)O)no3)cc2)C1 [Compound 41, (1S)-1-(1-{[5-(4-{[l-(2-methoxyethyl)-3-methylazetidin-3-yl]ethynyl}phenyl)-1,2-oxazol-3-yl]methyl}-1H-imidazol-2-yl)ethan-1-ol] | 4 µg/mL (≈ 9.51 µM) | 2 µg/mL (≈ 4.76 µM) | > 128 µg/mL | 231 nM | 
13 | C[C@H](O)c1nccn1Cc1cc(-c2ccc(C#C[C@@H]3[C@H]4CN(CC5COC5)C[C@@H]34)cc2)on1 [Compound 42, (1S)-1-[1-({5-[4-({(1R,5S,6s)-3-[(Oxetan-3-yl)methyl]-3-azabicyclo[3.1.0]hexan-6-yl}ethynyl)phenyl]-1,2-oxazol-3-yl}methyl)-1H-imidazol-2-yl]ethan-1-ol] | 0.5 µg/mL (≈ 1.12 µM) | 0.25 µg/mL (≈ 0.562 µM) | 16 µg/mL (≈ 36 µM) | 46.8 nM | 
14 | C[C@H](O)c1nccn1Cc1cc(-c2ccc(C#CC(C)(C)C)cc2)on1 [Compound 43, (1S)-1-[1-({5-[4-(3,3-dimethylbut-1-yn-1-yl)phenyl]-1,2-oxazol-3-yl}methyl)-1H-imidazol-2-yl]ethan-1-ol] | 2 µg/mL (≈ 5.72 µM) | 1 µg/mL (≈ 2.86 µM) | > 32 µg/mL | 47.1 nM | 
15 | C[C@H](O)c1nccn1Cc1cc(-c2ccc(C#CC3COC3)cc2)on1 [Compound 44, (1S)-1-{1-[(5-{4-[(oxetan-3-yl)ethynyl]phenyl}-1,2-oxazol-3-yl)methyl]-1H-imidazol-2-yl}ethan-1-ol] | 2 µg/mL (≈ 5.72 µM) | 2 µg/mL (≈ 5.72 µM) | 128 µg/mL (≈ 366 µM) | 22.7 nM | 
16 | CNC1(C#Cc2ccc(-c3cc(Cn4ccnc4[C@H](C)O)no3)cc2)CC1 [Compound 45, (1S)-1-(1-{[5-(4-{[1-(Methylamino)cyclopropyl]ethynyl}phenyl)-1,2-oxazol-3-yl]methyl}-1H-imidazol-2-yl)ethan-1-ol] | 0.5 µg/mL (≈ 1.38 µM) | 0.25 µg/mL (≈ 0.69 µM) | 128 µg/mL (≈ 353 µM) |  | 268 nM
17 | C[C@H](O)c1nccn1Cc1cc(-c2ccc(C#CC3C4COCC34)cc2)on1 (stereo partly drawn) [Compound 46, (1S)-1-{1-[(5-{4-[(3-oxabicyclo[3.1.0]hexan-6-yl)ethynyl]phenyl}-1,2-oxazol-3-yl)methyl]-1H-imidazol-2-yl} ethan-1-ol] | 0.12 µg/mL (≈ 0.32 µM) | 0.12 µg/mL (≈ 0.32 µM) | > 32 µg/mL | 13.4 nM | 
18 | C[C@H](O)c1nccn1Cc1cc(-c2ccc(C#C[C@@H]3[C@H]4CN(CC(=O)O)C[C@@H]34)cc2)on1 [Compound 110, [(1R,5S,6s)-6-({4-[3-((2-[(1S)-1-hydroxyethyl]-1H-imidazol-1-yl}methyl)-1,2-oxazol-5-yl]phenyl}ethynyl)-3-azabicyclo[3.1.0]hexan-3-yl]acetic acid] |  |  |  | 219 nM | 
19 | C[C@H](O)c1nccn1Cc1cc(-c2ccc(C#C[C@@H]3[C@H]4CN(CCC(=O)O)C[C@@H]34)cc2)on1 [Compound 114, 3-[(1R,5S,6s)-6-({4-[3-({2-[(1S)-1-hydroxyethyl]-1H-imidazol-1-yl}methyl)-1,2-oxazol-5-yl]phenyl}ethynyl)-3-azabicyclo[3.1.0]hexan-3-yl]propanoic acid] | 4 µg/mL (≈ 8.96 µM) |  | 4 µg/mL (≈ 8.96 µM) | 291 nM | 
